The values that follow come from patent US9844549B2, “2-aminothiazole derivative or salt thereof” (ASTELLAS PHARMA INC., priority 2014, dated 2017).

Where a name gives a salt, the structure may show the parent alone.

For one experiment, the system named is rat isolated bladder. Kind of experiment: Effect on electrical field stimulation-induced contraction in rat isolated bladder. The note with it: AUC of contraction, value before treatment = 100%, SD female rat bladder, read-out: Enhancement rate of extracted bladder contractions (% of pre). The procedure: Test Example 2: Effect on Electrical Field Stimulation-Induced Contraction in Rat Isolated Bladder
As an effect on the nerve stimulation-dependent bladder contraction in in vitro, the effect of the Example compounds of the present invention in the electrical field stimulation-induced contraction of the rat isolated bladder was measured by the following method. That is, a bladder specimen having a width of about 2 mm and a length of about 10 mm in the longitudinal direction from the bladder isolated from a Sprague-Dawley (SD) female rat (Japan SLC, Inc.) was prepared. The prepared bladder specimen was suspended in an organ bath filled with 10 mL of a Krebs-Henseleite solution. The Krebs-Henseleite solution was aerated at 95% 02 and 5% CO2, and kept at 37° C. After carrying out stabilization at an initial tension of 1 g, the contraction was caused twice with 60 mM KCl. After stabilization of the specimen with a Krebs-Henseleite solution, the contraction was caused by carrying out electrical field stimulation at 20 V with an electrical stimulation device (Nihon Kohden) (a stimulation frequency of 8 Hz, a pulse width of 0.3 msec, and a stimulation time of 10 seconds). By repeating the transmural electrical stimulation at an interval of 2 minutes, a voltage was adjusted to obtain a contraction height of approximately 50% of the contractile response at 20 V. After the contraction by electrical field stimulation had been stabilized, 10 μL of the test substances dissolved in 100% DMSO in advance (final concentrations of 3 μM, 10 μM, and 30 μM) was added thereto. The test substances were cumulatively administered at the following concentrations after the low-concentration contractile response had been stabilized. The response was taken into a personal computer through a PowerLab (registered trademark) (AD Instruments, Inc.), and analyzed by LabChart (registered trademark) (AD Instruments, Inc.). When the area under the response (area under curve, AUC) in each contraction response was calculated and the value before treatment with the test substance was taken as 100%, the enhancement rate (% of pre) of the isolated bladder contractions after treatment with the test substance was calculated.

The next experiment deals with anesthetized rats. Kind of experiment: Effect on pelvic nerve stimulation-induced elevation of intravesical pressure in anesthetized rats. The conditions noted are these: Rattus norvegicus; 3 mg/kg intravenous; maximum effect within one hour; AUC, pre-treatment = 100%; SD female rats; read-out: Increase rate of intravesical pressure (% of pre). It counts as in vivo. The method, then:
Test Example 3: Effect on Pelvic Nerve Stimulation-Induced Elevation of Intravesical Pressure in Anesthetized Rats
The effect of the Example compounds of the present invention in the pelvic nerve electrical stimulation-induced elevation of intravesical pressure using rats as an action of nerve stimulation-dependent bladder contraction in vivo was measured by the following method. That is, SD female rats (Japan SLC, Inc.) were used and its lower abdomen was dissected at the midline under pentobarbital anesthesia (50 mg/kg ip). After ligating and cutting the ureter on both sides, a cannula (PE-50) for measuring the intravesical pressure was inserted into the bladder from the external urethral opening and fixed by a clip. After injecting about 200 μL of saline through the cannula that had been inserted into the bladder, the other side was connected to a pressure transducer to measure the intravesical pressure. Under a stereoscopic microscope observation, the pelvic nerve in the vicinity of the bladder was peeled and an electrode for nerve stimulation (unique Medical) was placed. The abdominal cavity was filled with mineral oil (MP BIOMEDICALS). After placing in a post-operative stabilization period, the pelvic nerve was subjected to electrical stimulation (stimulation voltage: 10 V, stimulation frequency: 8 Hz, pulse width: 0.3 msec, and stimulation time: 10 seconds) to elicit the elevation of intravesical pressure, using an electrical stimulator (Nihon Kohden). By repeating the electrical stimulation at an interval of 2 minutes while adjusting the voltage, the voltage was adjusted to elicit about 50% to 70% elevation of intravesical pressure elicited at 10 V. Thereafter, by repeating the electrical stimulation at an interval of 10 minutes, the increase in the intravesical pressure by electrical stimulation was stabilized three times or more, and the test substance (an administration amount of 3 mg/kg) was then administered from the catheter detained in the vein at a volume of 1 mL/kg, thus measuring an effect of the elevation of the intravesical pressure of the test substance for 1 hour. The test substance was dissolved in water supplemented with 10% DMSO and 10% Cremophor.
The response was applied to a personal computer through a PowerLab (registered trademark) and analyzed by LabChart (registered trademark). The AUC of each elevation of the intravesical pressure was calculated, the intravesical pressure elevation rate (% of pre) after the treatment with the test substance was calculated by taking an average value of the values measured three times before the treatment with the test substance as 100%, and the maximum effect during a period within one hour after administration of the compound was considered as the effect of the test substance.

`CC1CC[C@@H](C)N1Cc1sc(Nc2ncnc(N3CCN(CCC(=O)O)CC3)c2F)nc1-c1cc(F)cc(C(F)(F)F)c1` (stereo in doubt) [Example 8, sodium 3-(4-{6-[(5-{[(2R,5R)-2,5-dimethylpyrrolidin-1-yl]methyl}-4-[3-fluoro-5-(trifluoromethyl)phenyl]-1,3-thiazol-2-yl)amino]-5-fluoropyrimidin-4-yl}piperazin-1-yl)propanoate]: the activity at 10 µM in the experiment with rat isolated bladder was 193%. The response vs control in vivo at 3 mg/kg with anesthetized rats stood at 178%.
Consider `COC[C@@H]1CN(c2ncnc(Nc3nc(-c4ccc(Cl)c(C(F)(F)F)c4)c(CN4CCC[C@H]4C)s3)c2F)CCN1CCC(=O)O` [Example 1, 3-[(2S)-4-{6-[(4-[4-chloro-3-(trifluoromethyl)phenyl]-5-{[(2R)-2-methylpyrrolidin-1-yl]methyl}-1,3-thiazol-2-yl)amino]-5-fluoropyrimidin-4-yl}-2-(methoxymethyl)piperazin-1-yl]propanoic acid trihydrochloride], for which the activity at 10 µM with rat isolated bladder was 120%. Further, the response vs control in vivo at 3 mg/kg in the experiment on anesthetized rats worked out at 197%.
`Cc1nc(Nc2nc(-c3cc(F)cc(C(F)(F)F)c3)c(CN3CCC[C@H]3C)s2)cc(N2CCN(CCC(=O)O)CC2)n1` [Example 3, 3-(4-{6-[(4-[3-fluoro-5-(trifluoromethyl)phenyl]-5-{[(2R)-2-methylpyrrolidin-1-yl]methyl}-1,3-thiazol-2-yl)amino]-2-methylpyrimidin-4-yl}piperazin-1-yl)propanoic acid trihydrochloride]: the activity at 10 µM in the experiment on rat isolated bladder is 136%. Also, the response vs control in vivo at 3 mg/kg in the experiment with anesthetized rats stood at 146%.
Take `Cc1nc(Nc2nc(-c3cc(F)cc(C(F)(F)F)c3)c(CN3[C@H](C)CC[C@H]3C)s2)c(F)c(N2CCN(CCC(=O)O)CC2)n1` [Example 4, sodium 3-(4-{6-[(5-{[(2R,5R)-2,5-dimethylpyrrolidin-1-yl]methyl}-4-[3-fluoro-5-(trifluoromethyl)phenyl]-1,3-thiazol-2-yl)amino]-5-fluoro-2-methylpyrimidin-4-yl}piperazin-1-yl)propanoate]: the activity at 10 µM in the experiment with rat isolated bladder is 127%. The response vs control in vivo at 3 mg/kg in the experiment with anesthetized rats came out at 178%.
For `C[C@@H]1CCCN1Cc1sc(Nc2ncnc(N3CCN(CCC(=O)O)CC3)c2F)nc1-c1ccc(Cl)c(C(F)(F)F)c1` [Example 9, 3-(4-{6-[(4-[4-chloro-3-(trifluoromethyl)phenyl]-5-{[(2R)-2-methylpyrrolidin-1-yl]methyl}-1,3-thiazol-2-yl)amino]-5-fluoropyrimidin-4-yl}piperazin-1-yl)propanoic acid trihydrochloride], in that order: 187% and 200%.
Turning to `COC[C@@H]1CN(c2ncnc(Nc3nc(-c4cc(F)cc(C(F)(F)F)c4)c(CN4CCC[C@H]4C)s3)c2F)CCN1CCC(=O)O` [Example 10, 3-[(2S)-4-{5-fluoro-6-[(4-[3-fluoro-5-(trifluoromethyl)phenyl]-5-{[(2R)-2-methylpyrrolidin-1-yl]methyl}-1,3-thiazol-2-yl)amino]pyrimidin-4-yl}-2-(methoxymethyl)piperazin-1-yl]propanoic acid trihydrochloride], in the experiment on rat isolated bladder, the activity at 10 µM amounted to 271%. In addition, in the experiment with anesthetized rats, the response vs control in vivo at 3 mg/kg amounted to 169%.
On to `C[C@@H]1CCCN1Cc1sc(Nc2ncnc(N3CCN(CCC(=O)O)CC3)c2F)nc1-c1cc(Cl)cc(C(F)(F)F)c1` [Example 11, 3-(4-{6-[(4-[3-chloro-5-(trifluoromethyl)phenyl]-5-{[(2R)-2-methylpyrrolidin-1-yl]methyl}-1,3-thiazol-2-yl)amino]-5-fluoropyrimidin-4-yl}piperazin-1-yl)propanoic acid trihydrochloride], for which, in the experiment with rat isolated bladder, the activity at 10 µM was determined as 219%. The response vs control in vivo at 3 mg/kg with anesthetized rats came out at 181%.
